Patent publication US20250230147A1, “LACTAMS AS CBL-B INHIBITORS” (Genentech, Inc., priority 2021, published 2025)

Legend:
[1] = test system: mouse hepatocytes; assay: Hepatocyte metabolic stability, mouse; format: in vitro ADME; conditions: 1.0 μM compound, 0.5 million cells/mL
Description: (§1) Metabolic stability assays of test compounds were evaluated in cryopreserved pooled rat, mouse, dog, and cynomolgus monkey hepatocytes (CellzDirect; Durham, NC, USA). Membrane integrity of the cells was assessed by trypan blue exclusion. Test compounds (1.0 μM with 0.1% dimethylsulfoxide) were incubated with cells (0.5 million cells/mL) at 37° C. in a 95% air/5% CO2 atmosphere for 0, 20, 40, or 60 minutes. Concentrations of test compounds in hepatocyte incubations were determined by LC/MS/MS. Intrinsic clearance was determined using a substrate depletion method and scaled to hepatic clearance using the well-stirred model as described above for the liver microsomes metabolic stability assays.

[2] = Liver microsomes metabolic stability, rat; format: in vitro ADME; conditions: 1 μM compound, 0.5 mg/mL microsomal protein
Description: (§2) Metabolic stability of test compounds was evaluated in pooled rat, mouse, dog, and cynomolgus monkey liver microsomes (BD Biosciences, San Jose, CA). The incubation conditions were as follows: 1 μM of the tested compound, 1 mM NADPH, 0.5 mg/mL microsomal protein in 0.1 M potassium phosphate buffer (pH 7.4). Following a 5-minute pre-incubation period, the enzymatic reactions were initiated by the addition of NADPH and test compound to the microsomes diluted in phosphate buffered saline. The mixtures were incubated at 37° C. for 0, 20, 40, and 60 min.
(§3) Compound concentrations were assessed by LC-MS/MS. Intrinsic clearance based upon microsomal stability data was determined using a substrate depletion method and scaled to hepatic clearance using the well-stirred model (Obach, R. S.; Baxter, J. G.; Liston, T. E.; Silber, B. M.; Jones, B. C.; Macintyre, F.; Rance, D. J.; Wastall, P., “The Prediction of Human Pharmacokinetic Parameters from Preclinical and in vitro Metabolism Data”, J. Pharmacol. Exp. Ther., (1997), 283 (1), 46-58).

[3] = target: Cbl-b (Homo sapiens (Human), UniProt Q13191); assay: Cbl-b LCK Ub TR-FRET assay (Cbl-b Lck HTRF); format: biochemical
Method in brief: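 TR-FRET (340 nm excitation, 615/665 nm emission) read after adding HA-ubiquitin–UBE2D2 thioester, anti-HA-D2 and streptavidin-Eu. Beforehand, compounds incubated 60 min with biotinylated Cbl-b, then 90 min with His-LCK and ATP (1 mM in 2× mix); IC50 from 10 concentrations, DMSO high and no-LCK low controls.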

[4] = test system: rat hepatocytes; assay: Hepatocyte metabolic stability, rat; format: in vitro ADME; conditions: 1.0 μM compound, 0.5 million cells/mL
Description: as §1

[5] = Liver microsomes metabolic stability, dog; format: in vitro ADME; conditions: 1 μM compound, 0.5 mg/mL microsomal protein
Description: as §2, §3

[6] = target: c-Cbl (Homo sapiens (Human), UniProt P22681); assay: C-Cbl LCK Ub TR-FRET assay (c-cbl Lck HTRF); format: biochemical; conditions: for (fold-selectivity): C-cbl Lck HTRF IC50 relative to Cbl-b Lck HTRF IC50
Method in brief: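 After the ubiquitination reaction, detection mixture was added and plates incubated 20 min at room temperature before reading. IC50 values were calculated with wells lacking LCK as the low control and DMSO as the high control.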

[7] = Liver microsomes metabolic stability, mouse; format: in vitro ADME; conditions: 1 μM compound, 0.5 mg/mL microsomal protein
Description: as §2, §3

[8] = In vivo pharmacokinetics, mouse; design: species or system CD-1 mice; conditions: male, CD-1, plasma; for bioavailability: PO 1-5 mg/kg, read-out: Oral Bioavailability (F %); for clearance: single intravenous bolus 0.2-1 mg/kg, read-out: Mouse CL
Description: The pharmacokinetics of test compounds were evaluated following a single intravenous bolus (IV) of solution at a dose of 0.2-1 mg/kg and oral administration (PO) of solution/suspension at doses of 1-5 mg/kg in male cynomolgus monkey, beagle dogs, Sprague Dawley rats, or CD-1 mice using a parallel study design. Blood samples for the IV dose group were collected prior to administration (predose) and at 0.033, 0.083, 0.25, 0.5, 1, 3, 6, 9 and 24 hours post dose. Blood samples for PO dose groups were collected prior to administration (predose) and at 0.083, 0.25, 0.5, 1, 3, 6, 9 and 24 hours post dose. For the IV group, urine was collected from each animal at predose and from 0-6 and 6-24 hours post dose. The vehicle used for IV dose groups was a combination of PEG400 with citrate buffer (pH 5.0) or PEG400/Cremphor with DMSO/H2O, and for PO groups was MCT.
Plasma and urine concentrations were quantitated at Genentech Inc. using a non-validated LC/MS/MS method. The lower limit of quantitation (LLOQ) of the plasma and urine assays was 0.005 μM. PK parameters were determined by non-compartmental methods using WinNonlin (version 5.2, Pharsight Corporation, Mountain View, CA).

Cbl-b, sequence (Q13191 40-426): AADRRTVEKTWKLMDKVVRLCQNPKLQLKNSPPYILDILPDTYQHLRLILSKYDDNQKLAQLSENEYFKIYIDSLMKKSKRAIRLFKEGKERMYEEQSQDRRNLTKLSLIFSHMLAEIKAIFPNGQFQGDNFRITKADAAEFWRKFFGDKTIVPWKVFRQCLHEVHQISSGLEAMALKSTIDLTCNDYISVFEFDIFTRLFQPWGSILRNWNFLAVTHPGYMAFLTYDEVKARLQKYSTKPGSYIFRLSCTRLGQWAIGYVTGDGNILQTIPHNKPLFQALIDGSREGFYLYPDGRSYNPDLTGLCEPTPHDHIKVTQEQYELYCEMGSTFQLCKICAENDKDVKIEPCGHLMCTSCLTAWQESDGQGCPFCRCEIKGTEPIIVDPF
c-Cbl, sequence (P22681 47-435): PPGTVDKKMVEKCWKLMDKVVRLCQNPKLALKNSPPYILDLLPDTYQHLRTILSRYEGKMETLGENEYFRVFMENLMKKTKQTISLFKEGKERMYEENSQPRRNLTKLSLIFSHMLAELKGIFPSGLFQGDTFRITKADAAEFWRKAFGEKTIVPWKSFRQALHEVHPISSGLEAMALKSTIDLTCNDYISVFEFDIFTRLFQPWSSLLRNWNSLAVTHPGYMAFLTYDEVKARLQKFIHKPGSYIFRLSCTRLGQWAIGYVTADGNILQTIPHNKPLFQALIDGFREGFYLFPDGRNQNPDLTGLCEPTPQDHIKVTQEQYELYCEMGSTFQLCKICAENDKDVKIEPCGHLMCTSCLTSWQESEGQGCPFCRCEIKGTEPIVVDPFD

Which results are given for Cn1cnnc1[C@H](F)C1(c2cccc(N3Cc4c(cc(CN)cc4C(F)(F)F)C3=O)c2)COC1 [Compound 68, (R)-6-(aminomethyl)-2-(3-(3-(fluoro(4-methyl-4H-1,2,4-triazol-3-yl)methyl)oxetan-3-yl)phenyl)-4-(trifluoromethyl)isoindolin-1-one]?
Hepatocyte Pred. CLhep (mL/min/kg) Rat/Mouse/Dog [1]: 37 mL/min/kg; Liver microsomes Pred. CLhep (mL/min/kg) Rat/Mouse/Dog [2]: 6 mL/min/kg; IC50 [3]: 79 nM; Hepatocyte Pred. CLhep (mL/min/kg) Rat/Mouse/Dog [4]: 19 mL/min/kg; Liver microsomes Pred. CLhep (mL/min/kg) Rat/Mouse/Dog [5]: 12 mL/min/kg; IC50 [6]: 110 nM; (fold-selectivity) [6]: 1.3x; Liver microsomes Pred. CLhep (mL/min/kg) Rat/Mouse/Dog [7]: 14 mL/min/kg

With CC(C)[C@H]1CN(C)CCN1Cc1cc2c(c(C(F)(F)F)c1)CN(c1cccc(C3([C@@H](F)c4nncn4C)CC(F)(F)C3)c1)C2=O [Compound 189, 2-(3-(3,3-difluoro-1-((R)-fluoro(4-methyl-4H-1,2,4-triazol-3-yl)methyl)cyclobutyl)phenyl)-6-(((S)-2-isopropyl-4-methylpiperazin-1-yl)methyl)-4-(trifluoromethyl)isoindolin-1-one] as the compound, how does the IC50 [3] read?
Its IC50 is 12 nM.

What about the IC50 [6] of the same compound?
The IC50 was 11 nM.

And the “(fold-selectivity)” value [6]?
The value was 0.95x.

And the bioavailability [8]?
Its bioavailability is 21%.

What about the clearance [8] of the same compound?
Its clearance is 34 mL/min/kg.

For Cn1cnnc1[C@H](F)C1(c2cccc(N3Cc4c(cc(CN5CC6CC5C6)cc4C(F)(F)F)C3=O)c2)COC1 [Compound 86, (R)-6-((2-azabicyclo[2.1.1]hexan-2-yl)methyl)-2-(3-(3-(fluoro(4-methyl-4H-1,2,4-triazol-3-yl)methyl)oxetan-3-yl)phenyl)-4-(trifluoromethyl)isoindolin-1-one], which “Hepatocyte Pred. CLhep (mL/min/kg) Rat/Mouse/Dog” value [1] is on record?
The value was 36 mL/min/kg.

What about the “Liver microsomes Pred. CLhep (mL/min/kg) Rat/Mouse/Dog” value [2] of the same compound?
The value was 7 mL/min/kg.

And the IC50 [3]?
Its IC50 is 130 nM.

And the “Hepatocyte Pred. CLhep (mL/min/kg) Rat/Mouse/Dog” value [4]?
Its value is 12 mL/min/kg.

What about the “Liver microsomes Pred. CLhep (mL/min/kg) Rat/Mouse/Dog” value [5] of the same compound?
The value was 14 mL/min/kg.

What about the IC50 [6] of the same compound?
The IC50 was 270 nM.

What about the “(fold-selectivity)” value [6] of the same compound?
The value was 2.1x.

And the bioavailability [8]?
Its bioavailability is 2%.

What about the clearance [8] of the same compound?
The clearance was 40 mL/min/kg.

What about the “Liver microsomes Pred. CLhep (mL/min/kg) Rat/Mouse/Dog” value [7] of the same compound?
Its value is 27 mL/min/kg.

For Cn1cnnc1[C@H](F)C1(c2cccc(N3Cc4c(cc(CN5CCC5)cc4C(F)(F)F)C3=O)c2)COC1 [Compound 70, (R)-6-(azetidin-1-ylmethyl)-2-(3-(3-(fluoro(4-methyl-4H-1,2,4-triazol-3-yl)methyl)oxetan-3-yl)phenyl)-4-(trifluoromethyl)isoindolin-1-one], which IC50 [3] is on record?
The IC50 was 110 nM.

And the IC50 [6]?
The IC50 was 210 nM.

What about the “(fold-selectivity)” value [6] of the same compound?
The value was 1.9x.

And the bioavailability [8]?
The bioavailability was 2%.

What about the clearance [8] of the same compound?
The clearance was 44 mL/min/kg.

For Cn1cnnc1[C@H](F)C1(c2cccc(N3Cc4c(cc(CN5CC(C)(CO)C5)cc4C(F)(F)F)C3=O)c2)COC1 [Compound 74, (R)-2-(3-(3-(fluoro(4-methyl-4H-1,2,4-triazol-3-yl)methyl)oxetan-3-yl)phenyl)-6((3-(hydroxymethyl)-3-methylazetidin-1-yl)methyl)-4-(trifluoromethyl)isoindolin-1-one], which “Hepatocyte Pred. CLhep (mL/min/kg) Rat/Mouse/Dog” value [1] is on record?
Its value is 35 mL/min/kg.

What about the “Liver microsomes Pred. CLhep (mL/min/kg) Rat/Mouse/Dog” value [2] of the same compound?
The value was 15 mL/min/kg.

And the IC50 [3]?
The IC50 was 57 nM.

And the “Hepatocyte Pred. CLhep (mL/min/kg) Rat/Mouse/Dog” value [4]?
The value was 11 mL/min/kg.

And the “Liver microsomes Pred. CLhep (mL/min/kg) Rat/Mouse/Dog” value [5]?
The value was 19 mL/min/kg.

What about the IC50 [6] of the same compound?
The IC50 was 120 nM.

What about the “(fold-selectivity)” value [6] of the same compound?
Its value is 2.2x.

And the “Liver microsomes Pred. CLhep (mL/min/kg) Rat/Mouse/Dog” value [7]?
The value was 37 mL/min/kg.
